Experimental data as given in patent publication US8106050B2, “Derivatives of pyrrolo-pyrazines having a kinase inhibitory activity and their biological applications” (Centre National de la Recherche Scientifique (C.N.R.S.), priority 2002, dated 2012).
Like-named read-outs stand apart in the source and are kept apart here.

What was measured:
CDK5/p25 = CDK5/p25 (Homo sapiens, UniProt Q00535); experiment: CDK5/p25 kinase assay (histone H1, 15 μM ATP); type: biochemical, mammalian; conditions: Table 1
CDK5/p25, sequence (Q00535 whole entry, species assumed): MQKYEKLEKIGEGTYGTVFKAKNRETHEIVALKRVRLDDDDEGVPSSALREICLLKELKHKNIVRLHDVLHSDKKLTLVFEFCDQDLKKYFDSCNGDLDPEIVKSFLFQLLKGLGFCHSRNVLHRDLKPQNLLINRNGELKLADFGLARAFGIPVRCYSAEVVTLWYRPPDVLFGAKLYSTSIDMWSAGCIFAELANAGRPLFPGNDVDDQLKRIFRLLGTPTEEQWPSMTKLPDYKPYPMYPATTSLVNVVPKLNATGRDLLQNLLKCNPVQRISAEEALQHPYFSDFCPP
CDK5/p25, sequence (Q15078 99-307 partner limits assumed, species assumed): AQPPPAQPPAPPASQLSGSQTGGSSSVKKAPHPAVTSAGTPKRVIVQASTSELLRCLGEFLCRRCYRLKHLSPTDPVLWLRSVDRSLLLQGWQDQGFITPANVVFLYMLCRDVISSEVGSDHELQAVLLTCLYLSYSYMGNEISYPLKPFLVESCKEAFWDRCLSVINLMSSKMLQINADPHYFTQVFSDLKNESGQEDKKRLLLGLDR
Experimental: (§1) Blank values were subtracted and activities calculated as pmoles of phosphate incorporated for a 10 min. incubation. […] Controls were performed with appropriate dilutions of dimethylsulfoxide. In a few cases phosphorylation of the substrate was assessed by autoradiography after SDS-PAGE.
CDK5/p25 was reconstituted by mixing equal amounts of recombinant mammalian CDK5 and p25 expressed in E. coli as GST (Glutathione-S-transferase) fusion proteins and purified by affinity chromatography on glutathione-agarose (p25 is a truncated version of p35, the 35 kDa CDK5 activator). Its activity was assayed in buffer C as described for CDK1/cyclin B.
(§2) Kinases were assayed as above described in the presence of increasing concentrations of aloisines.

CDK1/cyclin B = CDK1/cyclin B kinase assay (histone H1, 15 μM ATP); type: biochemical, starfish (Marthasterias glacialis); conditions: for IC50: 15 μM ATP, Table 1
Experimental: as §1
CDK1/cyclin B was extracted in homogenisation buffer from M phase starfish (Marthasterias glacialis) oocytes and purified by affinity chromatography on p9^CKShs1-sepharose beads, from which it was eluted by free p9^CKShs1. […] ATP (3,000 Ci/mmol; 1 mCi/ml) in a final volume of 30 μl. After 10 min. incubation at 30° C., 25 μl aliquots of supernatant were spotted onto P81 phosphocellulose papers and treated as described above.
as §2

GSK-3α/β = experiment: GSK-3 kinase assay (GS-1 peptide, 15 μM ATP); type: biochemical, porcine
Experimental: as §1
GSK-3α/β was either purified from porcine brain or expressed in and purified from insect Sf9 cells. […] ATP (3,000 Ci/mmol; 1 mCi/ml) in a final volume of 30 μl. After 30 min. incubation at 30° C., 25 μl aliquots of supernatant were spotted onto 2.5×3 cm pieces of Whatman P81 phosphocellulose paper, and, 20 sec. later, the filters were washed five times (for at least 5 min. each time) in a solution of 10 ml phosphoric acid/liter of water. The wet filters were counted in the presence of 1 ml ACS (Amersham) scintillation fluid.
as §2

[1] = target: Insulin receptor tyrosine kinase (Homo sapiens, UniProt P06213); conditions: read-out: IC50 Insulin receptor tyrosine kinase; 15 μM ATP
Insulin receptor tyrosine kinase, sequence (P06213 28-1382): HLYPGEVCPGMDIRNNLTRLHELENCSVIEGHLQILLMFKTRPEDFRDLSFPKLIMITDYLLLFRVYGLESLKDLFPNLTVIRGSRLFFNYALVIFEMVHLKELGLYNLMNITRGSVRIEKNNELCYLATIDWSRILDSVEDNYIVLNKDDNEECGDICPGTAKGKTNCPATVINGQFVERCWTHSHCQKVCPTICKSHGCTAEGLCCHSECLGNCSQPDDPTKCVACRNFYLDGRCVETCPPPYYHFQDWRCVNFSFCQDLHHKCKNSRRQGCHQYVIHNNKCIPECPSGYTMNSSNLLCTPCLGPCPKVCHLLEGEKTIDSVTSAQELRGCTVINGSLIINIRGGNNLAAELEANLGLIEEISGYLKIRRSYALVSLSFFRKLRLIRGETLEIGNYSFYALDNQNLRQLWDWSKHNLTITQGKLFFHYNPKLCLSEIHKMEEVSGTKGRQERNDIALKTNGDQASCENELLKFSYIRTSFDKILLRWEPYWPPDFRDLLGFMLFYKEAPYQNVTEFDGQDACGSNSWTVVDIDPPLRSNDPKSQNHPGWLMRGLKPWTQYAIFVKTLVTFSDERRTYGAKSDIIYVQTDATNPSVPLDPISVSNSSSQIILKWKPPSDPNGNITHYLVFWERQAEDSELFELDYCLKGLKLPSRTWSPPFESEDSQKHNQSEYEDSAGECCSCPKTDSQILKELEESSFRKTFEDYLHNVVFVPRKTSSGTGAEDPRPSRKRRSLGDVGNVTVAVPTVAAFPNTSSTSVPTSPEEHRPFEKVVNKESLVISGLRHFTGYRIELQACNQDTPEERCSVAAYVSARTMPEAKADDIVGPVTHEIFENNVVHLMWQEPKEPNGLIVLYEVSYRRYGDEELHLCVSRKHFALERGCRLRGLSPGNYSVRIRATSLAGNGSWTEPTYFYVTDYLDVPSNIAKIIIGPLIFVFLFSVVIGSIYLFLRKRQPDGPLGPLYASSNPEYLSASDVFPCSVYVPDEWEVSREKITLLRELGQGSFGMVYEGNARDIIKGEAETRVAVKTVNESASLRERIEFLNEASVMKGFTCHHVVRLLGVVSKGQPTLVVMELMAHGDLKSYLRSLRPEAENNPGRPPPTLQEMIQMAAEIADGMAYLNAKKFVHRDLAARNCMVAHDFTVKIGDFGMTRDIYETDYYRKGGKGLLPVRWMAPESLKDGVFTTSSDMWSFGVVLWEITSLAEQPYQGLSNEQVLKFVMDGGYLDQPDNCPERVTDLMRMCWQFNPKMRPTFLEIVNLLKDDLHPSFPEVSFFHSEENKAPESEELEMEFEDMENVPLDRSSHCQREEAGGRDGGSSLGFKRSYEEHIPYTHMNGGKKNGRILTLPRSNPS

protein kinase C η = target: T1, protein kinase C η (Homo sapiens, UniProt P24723); experiment: Kinase selectivity panel; type: biochemical; conditions: 15 μM ATP
T1 construct: made in house
T1 sequence (P24723 whole entry): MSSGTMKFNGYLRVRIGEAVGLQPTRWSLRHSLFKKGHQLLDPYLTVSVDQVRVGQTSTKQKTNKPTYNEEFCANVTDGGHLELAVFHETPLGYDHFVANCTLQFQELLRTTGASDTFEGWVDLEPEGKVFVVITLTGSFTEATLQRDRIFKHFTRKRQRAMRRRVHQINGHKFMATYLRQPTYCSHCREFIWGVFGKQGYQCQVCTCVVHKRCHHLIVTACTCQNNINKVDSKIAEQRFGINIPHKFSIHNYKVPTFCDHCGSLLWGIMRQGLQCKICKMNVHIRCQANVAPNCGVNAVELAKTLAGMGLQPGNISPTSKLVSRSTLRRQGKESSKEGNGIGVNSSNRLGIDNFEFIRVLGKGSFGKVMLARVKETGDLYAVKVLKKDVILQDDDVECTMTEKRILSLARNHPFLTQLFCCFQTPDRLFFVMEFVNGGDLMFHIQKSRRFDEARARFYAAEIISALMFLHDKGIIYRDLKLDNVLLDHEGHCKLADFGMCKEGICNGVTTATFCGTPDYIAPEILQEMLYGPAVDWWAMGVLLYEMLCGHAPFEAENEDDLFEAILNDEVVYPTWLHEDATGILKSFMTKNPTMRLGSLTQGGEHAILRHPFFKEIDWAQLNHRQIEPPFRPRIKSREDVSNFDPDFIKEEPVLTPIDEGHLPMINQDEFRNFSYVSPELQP

MAPKK = experiment: Kinase selectivity panel; type: biochemical; conditions: 15 μM ATP
Casein kinase 1 = experiment: Kinase selectivity panel; type: biochemical; conditions: 15 μM ATP
erk2 = target: T2, erk2 (Homo sapiens, UniProt P28482); experiment: Kinase selectivity panel; type: biochemical; conditions: 15 μM ATP
T2 construct: made in house
T2 sequence (P28482 whole entry, species assumed): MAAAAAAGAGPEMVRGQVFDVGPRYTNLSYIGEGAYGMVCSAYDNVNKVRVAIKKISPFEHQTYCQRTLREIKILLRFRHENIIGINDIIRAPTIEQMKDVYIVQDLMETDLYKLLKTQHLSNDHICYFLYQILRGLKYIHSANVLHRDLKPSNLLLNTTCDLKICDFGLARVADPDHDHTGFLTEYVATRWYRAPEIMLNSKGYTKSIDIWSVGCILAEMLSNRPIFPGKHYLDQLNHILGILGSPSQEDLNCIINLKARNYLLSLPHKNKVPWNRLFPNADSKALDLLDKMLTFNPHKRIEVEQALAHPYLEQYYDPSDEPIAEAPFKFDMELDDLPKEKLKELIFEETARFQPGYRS

CDK4/cyclin D1 = target: T3, CDK4/cyclin D1 (Homo sapiens, UniProt P11802); experiment: Kinase selectivity panel; type: biochemical; conditions: 15 μM ATP
T3 construct: made in house
T3 sequence (P11802 whole entry, species assumed): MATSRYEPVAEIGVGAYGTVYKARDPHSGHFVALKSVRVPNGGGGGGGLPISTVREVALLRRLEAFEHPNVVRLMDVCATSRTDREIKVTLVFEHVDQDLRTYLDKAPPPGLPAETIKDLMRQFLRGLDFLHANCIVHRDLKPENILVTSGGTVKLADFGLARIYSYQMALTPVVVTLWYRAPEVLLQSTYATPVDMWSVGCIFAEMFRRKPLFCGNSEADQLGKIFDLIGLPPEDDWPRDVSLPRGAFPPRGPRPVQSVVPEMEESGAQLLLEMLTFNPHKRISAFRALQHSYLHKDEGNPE
T3 sequence (P24385 whole entry partner, species assumed): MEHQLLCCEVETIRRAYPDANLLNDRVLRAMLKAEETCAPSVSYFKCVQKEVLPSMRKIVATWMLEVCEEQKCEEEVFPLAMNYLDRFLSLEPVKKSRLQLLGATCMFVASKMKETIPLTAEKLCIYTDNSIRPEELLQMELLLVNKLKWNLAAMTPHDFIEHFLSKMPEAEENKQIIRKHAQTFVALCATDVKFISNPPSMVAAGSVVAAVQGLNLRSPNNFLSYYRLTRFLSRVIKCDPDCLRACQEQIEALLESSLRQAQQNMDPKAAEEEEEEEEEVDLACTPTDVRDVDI

NT2 cells [2] = experiment: Exponential cell growth of NT2 cells; type: cell-based, human; conditions: figure legend FIGS. 4A to 4E
Experimental: (§3) Clonal human NT2 teraterocarcinoma cells were obtained from Stratagene (La Jolla, Calif.) and grown in Dulbecco's Modified Eagle Medium: Nutrient Mixture F-12 with 2 mM L-Glutamine (BIO […]) supplemented with 5% FCS and containing penicillin (20 UI/ml) and streptomycin (20 μg/ml) at 37° C., in a humidified atmosphere containing 5% CO2 in air.
(§4) Exponentially growing cells were incubated for 24 h with aloisine A (stock solution dissolved in dimethylsulfoxide). Nocodazole treatment of cells was performed at a concentration of 0.04 μg nocodazole/ml of medium for 24 h. Following the nocodazole treatment, cells were washed twice with fresh medium and cultured with or without aloisine A for 24 h. To perform serum deprivation, cells were maintained in serum-free medium for 40 h. Following serum deprivation, cells were washed twice and cultured in fresh serum-containing medium with or without aloisine A for 40 h.
The formazan products were dissolved in DMSO and quantified by measurement of the absorbance at 562 nm.

erk1 = target: T4, erk1 (Homo sapiens, UniProt P27361); experiment: Kinase selectivity panel; type: biochemical; conditions: 15 μM ATP
T4 construct: made in house
T4 sequence (P27361 whole entry, species assumed): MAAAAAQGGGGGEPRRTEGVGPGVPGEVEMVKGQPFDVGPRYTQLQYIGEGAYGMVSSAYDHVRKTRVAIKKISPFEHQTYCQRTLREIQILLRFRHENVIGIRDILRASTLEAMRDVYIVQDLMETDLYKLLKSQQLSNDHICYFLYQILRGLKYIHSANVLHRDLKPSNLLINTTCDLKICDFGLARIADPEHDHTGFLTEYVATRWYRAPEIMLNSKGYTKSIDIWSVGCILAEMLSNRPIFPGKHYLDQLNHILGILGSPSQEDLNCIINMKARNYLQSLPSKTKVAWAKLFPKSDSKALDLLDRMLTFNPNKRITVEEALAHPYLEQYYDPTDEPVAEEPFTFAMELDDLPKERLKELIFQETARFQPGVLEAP

c-Jun N-terminal kinase = experiment: Kinase selectivity panel; type: biochemical; conditions: 15 μM ATP
Casein kinase 2 = experiment: Kinase selectivity panel; type: biochemical; conditions: 15 μM ATP
NT2 cells [3] = experiment: Cell cycle analysis by flow cytometry; type: cell-based, human
Experimental: as §3, §4
Cells were trypsinised, collected by centrifugation and fixed in cold 70% ethanol for at least 4 h. Fixed cells were washed in PBS, incubated with 10 μg RNAse A/ml and stained with 25 μg propidium iodide/ml for 1 h at 37° C. The stained cells were then analysed for cell cycle distribution on a FACSort flow cytometer (Becton Dickinson). Cell cycle analyses were performed multiCYCLE (18).
The effect of aloisine A on the cell cycle distribution was investigated for NT2 cells by flow cytometry. Unsynchronised cells (FIG. 4E) were exposed to 20 μM aloisine A for 40 h (FIG. 4F).
The effects of aloisine A on NT2 cells synchronized either in G0/G1 by serum deprivation or in G2/M by nocodazole treatment was also investigated. The results are given on FIG. 4: the cell cycle phase distribution was analysed by flow cytometry following propidium iodide staining. (A, B, C). NT2 cells were synchronized by serum deprivation for […] (A), then cultured for 40 h in fresh medium without (B) or with 20 μM aloisine A (C). (D, E, F). NT2 cells were synchronized by nocodazole treatment ([…]) for 24 h (D), then cultured for 40 h in fresh medium without (E) or with 20 μM aloisine A (F).

[4] = 15 μM ATP, Table 1, read-out: IC50 GSK-3

SMILES | IC50 (CDK5/p25) [µM] | melting point | IC50 (CDK1/cyclin B) [µM] | IC50 (GSK-3α/β; [4]) [µM] | further results
Clc1cc(Cl)cc(-c2cc3nccnc3[nH]2)c1 [20 (RP15), 6-(3,5-Dichlorophenyl)[5H]pyrrolo[2,3-b]pyrazine] | > 100 | 252 °C (dec.) | > 100 | > 100 | 
CN(C)c1ccc(-c2cc3nccnc3[nH]2)cc1 [26 (RP129), 6-(4-Dimethylaminophenyl)[5H]pyrrolo[2,3-b]pyrazine] | > 100 | 271 °C (dec.) | 20 | 12 | 
CCCCc1c(-c2ccc(O)cc2)[nH]c2nccnc12 [39 (RP107)] |  |  |  |  | IC50 [1]: 60 µM; IC50 (protein kinase C η): > 100 µM; IC50 (MAPKK): > 100 µM; IC50 (Casein kinase 1): > 100 µM; IC50 (erk2): 22 µM; IC50 (CDK4/cyclin D1): > 100 µM; Exponential cell growth (NT2 cells [2]): reversible inhibition of exponential cell growth; IC50 (erk1): 18 µM; IC50 (c-Jun N-terminal kinase): 3.3 to 10 µM; Mechanism of inhibition versus ATP, CDK1/cyclin B (CDK1/cyclin B; ATP 0.1 to […], histone H1 0.7 mg/ml, double reciprocal plots): competitive inhibitor for ATP; IC50 (GSK-3α/β; text summary of selectivity, read-out: IC50 GSK-3α/β): […]; IC50 (Casein kinase 2): > 100 µM; Cell cycle distribution, unsynchronised cells (NT2 cells [3]; NT2 cells, 20 μM for 40 h): accumulation in G2/M phase; Cell cycle distribution after G2/M synchronisation by nocodazole (NT2 cells [3]; NT2 cells, 20 μM for 40 h after nocodazole withdrawal): remained in G2/M; Cell cycle distribution after G0/G1 synchronisation by serum deprivation (NT2 cells [3]; NT2 cells, serum-enriched medium with 20 μM for 40 h): remained essentially in G0/G1; Signs of apoptosis (NT2 cells [3]; unsynchronised NT2 cells, 20 μM for 40 h): No signs of apoptosis were detectable
c1csc(-c2cc3nccnc3[nH]2)c1 [2 (RP6), 6-(2-Thienyl)[5H]pyrrolo[2,3-b]pyrazine] | 2 | 260.3 °C | 7 | 1.2 | 
FC(F)(F)c1ccc(-c2cc3nccnc3[nH]2)cc1 [22 (RP8), 6-(4-Trifluoromethylphenyl)[5H]pyrrolo[2,3-b]pyrazine] | > 100 | 238 °C (dec.) | 6 | 7.2 | 

Now from value to molecule, other results behind:

IC50 (CDK5/p25) [µM] | melting point | IC50 (CDK1/cyclin B) [µM] | IC50 (GSK-3α/β; [4]) [µM] | SMILES | further results
1 | 230 °C (dec.) | 2.3 | 0.8 | c1cnc2[nH]c(-c3ccsc3)cc2n1 [3 (RP128)] | 
4 | 256.1 °C (dec.) | 2 | 1.1 | COc1ccc(-c2cc3nccnc3[nH]2)cc1 [14 (RP11), 6-(4-Methoxyphenyl)[5H]pyrrolo[2,3-b]pyrazine] | 
4 | 216 °C | 5 | 2.3 | c1ccc(-c2cc3nccnc3[nH]2)cc1 [5 (RP7), 6-Phenyl[5H]pyrrolo[2,3-b]pyrazine] | 
